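How tested: cells in 96-well plates exposed to compound for 48 hours at five concentrations. Abbreviation: GI50, concentration required for 50% inhibition of growth. At the TGI there is no net growth.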
Legend:
Experiment in all cases: NCI anticancer screen, dose series, 48 h
[1] = test system: SK-MEL-2 melanoma
[2] = test system: OVCAR-4 ovarian
[3] = test system: LOX IMVI melanoma
[4] = test system: RXF 393 renal
[5] = test system: OVCAR-8 ovarian
[6] = test system: KM12 colon
[7] = test system: 786-0 renal
[8] = test system: CAKI-1 renal
[9] = test system: BT-549 breast
[10] = test system: UACC-257 melanoma

SMILES	GI50 [1]	TGI [1]	GI50 [2]	TGI [2]	GI50 [3]	TGI [3]	GI50 [4]	TGI [4]	GI50 [5]	TGI [5]	GI50 [6]	TGI [6]	GI50 [7]	TGI [7]	GI50 [8]	TGI [8]	GI50 [9]	TGI [9]	GI50 [10]	TGI [10]
CCC[CH2][Sn]([CH2]CCC)([O]C(=O)c1ccc(OC)c(OC)c1OC)[O][Sn]([CH2]CCC)([CH2]CCC)[O]C(=O)c1ccc(OC)c(OC)c1OC	0.16 µM	0.48 µM	0.618 µM	1.87 µM	0.134 µM	0.292 µM	0.153 µM	0.38 µM	0.299 µM	0.979 µM	0.859 µM	2.31 µM	0.176 µM	0.456 µM	0.0961 µM	0.506 µM	0.241 µM	1.15 µM	0.217 µM	0.549 µM
N=c1c2c(-c3ccccc3)c(-c3ccccc3)n(Cc3ccccc3)c2ncn1C1CCC(O)CC1 (stereo not given)	1.08 µM	4.38 µM	1.43 µM	13.1 µM	0.14 µM	1.69 µM	0.374 µM	2.4 µM	0.072 µM	19 µM	0.327 µM	11.1 µM	2.12 µM	17.3 µM	0.147 µM	1.89 µM	2.55 µM	9.85 µM	0.469 µM	1.91 µM
COc1cc(N=Nc2ccc(O)c3ncccc23)c2ncccc2c1	8.4 µM	> 100 µM	1.68 µM	> 100 µM	2.13 µM	> 100 µM	2.72 µM	28.2 µM	3.73 µM	> 100 µM	4.21 µM	> 100 µM	3.43 µM	24.2 µM	1.83 µM	> 100 µM	4.31 µM	> 100 µM	10.9 µM	> 100 µM
COc1cc(N(CCC#N)CCC#N)ccc1/C(N=Nc1ccc(Cl)cc1)=N/NC(=O)c1cc(Br)ccc1O	146 µg/mL	> 150 µg/mL	11.1 µg/mL	37 µg/mL	49.3 µg/mL	> 150 µg/mL	36.9 µg/mL	> 150 µg/mL	39 µg/mL	108 µg/mL	48 µg/mL	129 µg/mL	77.1 µg/mL	> 150 µg/mL	51.2 µg/mL	> 150 µg/mL	140 µg/mL	> 150 µg/mL	> 150 µg/mL	> 150 µg/mL
COc1ccc(-c2ccc(=O)oc2C#Cc2cc(OC)c(OC)c(OC)c2)cc1O	1.31 µM	> 22.1 µM	1.3 µM	> 100 µM	0.399 µM	> 100 µM	0.0813 µM	2.39 µM	0.775 µM	> 100 µM	0.759 µM	> 100 µM	1.18 µM	> 100 µM	0.621 µM	> 100 µM	0.275 µM	99.2 µM	0.857 µM	> 37.3 µM
S=c1[nH]c(=S)c2cc3ccccc3nc2[nH]1	26.1 µM	84.7 µM	> 100 µM	> 100 µM	> 100 µM	> 100 µM	> 100 µM	> 100 µM	> 100 µM	> 100 µM	29.5 µM	> 100 µM	> 100 µM	> 100 µM	> 100 µM	> 100 µM	35.4 µM	> 100 µM	> 100 µM	> 100 µM
CN(C)C1CCN(C(=O)c2ccc(NC(=O)Nc3ccc(-c4nc(N5CCOCC5)c5cccn5n4)cc3)cc2)CC1	0.0833 µM	1.43 µM	0.0137 µM	0.0721 µM	0.0267 µM	1.19 µM	0.088 µM	0.604 µM	0.116 µM	15.5 µM	0.155 µM	7.69 µM	0.31 µM	6.36 µM	3.39 µM	20.8 µM	0.177 µM	2.25 µM	0.204 µM	0.729 µM
CC1CC2CCCC(O)=C2C(=O)O1 (stereo not given)	–	> 100 µM	–	> 100 µM	–	> 100 µM	–	> 100 µM	–	> 100 µM	–	> 100 µM	–	> 100 µM	–	> 100 µM	–	> 100 µM	–	> 100 µM
COc1ccc2nc3ccccc3c(NCc3ccc(F)cc3)c2c1	3.19 µM	10.4 µM	2.27 µM	8.23 µM	0.841 µM	1.71 µM	1.13 µM	3.1 µM	2 µM	13.6 µM	2.42 µM	8.88 µM	1.87 µM	6.82 µM	1.73 µM	7.05 µM	4.75 µM	11.4 µM	1.8 µM	6.68 µM
NC(N)=N/N=C/c1c(Cl)cccc1Cl	18.5 µM	36.1 µM	25.3 µM	> 100 µM	14.4 µM	30.1 µM	15.5 µM	35.8 µM	30 µM	> 100 µM	19.9 µM	59.1 µM	18 µM	43.7 µM	23 µM	95.3 µM	16 µM	44.9 µM	12.3 µM	27.3 µM
CCn1c(O)c(/C=N/NC(=O)C(C)c2ccc(CC(C)C)cc2)sc1=S (stereo not given)	3.19 µM	> 49.8 µM	1.08 µM	> 52 µM	0.594 µM	> 36.1 µM	0.222 µM	0.654 µM	0.493 µM	> 100 µM	0.371 µM	> 32.8 µM	0.606 µM	> 40.9 µM	0.331 µM	> 33.7 µM	0.98 µM	10.3 µM	3.16 µM	> 74.9 µM
CCOc1ccc(/C=C2\N=C(c3ccc([N+](=O)[O-])cc3)OC2=O)cc1	–	> 100 µM	–	> 100 µM	–	> 100 µM	–	> 100 µM	–	> 100 µM	–	> 100 µM	–	> 100 µM	–	> 100 µM	–	> 100 µM	–	> 100 µM
Cc1nc(N)sc1N=Nc1ccccc1Br	–	55.2 µM	–	> 61.9 µM	–	> 66.1 µM	–	43.6 µM	–	> 84.8 µM	–	51.1 µM	–	69.5 µM	–	81.8 µM	–	46.4 µM	–	55.8 µM

From PubChem BioAssay (NCI)
